Laboratory results reported in patent US9212171B2, “Ethynyl compounds” (Hoffmann-La Roche Inc., priority 2011, dated 2015).

Biological target: human mGlu5a receptor (Homo sapiens (Human), UniProt P41594)
Test: Intracellular Ca2+ mobilization assay (mGlu5 PAM)
Assay type: cell-based
Settings: for EC50: HEK-293 cells stably transfected with human mGlu5a, L-glutamate added at EC20 (typically around 80 μM); for Emax: maximal response in % of the maximal stimulatory effect obtained with saturating concentrations of L-glutamate, read-out: Eff. (%)
Method: A monoclonal HEK-293 cell line stably transfected with a cDNA encoding for the human mGlu5a receptor was generated; for the work with mGlu5 Positive Allosteric Modulators (PAMs), a cell line with low receptor expression levels and low constitutive receptor activity was selected to allow the differentiation of agonistic versus PAM activity. Cells were cultured according to standard protocols (Freshney, 2000) in Dulbecco's Modified Eagle Medium with high glucose supplemented with 1 mM glutamine, 10% (vol/vol) heat-inactivated bovine calf serum, Penicillin/Streptomycin, […] hygromycin and 15 μg/ml blasticidin (all cell culture reagents and antibiotics from Invitrogen, Basel, Switzerland).
About 24 hrs before an experiment, 5×10^4 cells/well were seeded in poly-D-lysine coated, black/clear-bottomed 96-well plates. The cells were loaded with 2.5 μM Fluo-4AM in loading buffer (1×HBSS, 20 mM HEPES) for 1 hr at 37° C. and washed five times with loading buffer. The cells were transferred into a Functional Drug Screening System 7000 (Hamamatsu, Paris, France), and 11 half logarithmic serial dilutions of test compound at 37° C. were added and the cells were incubated for 10-30 min. with on-line recording of fluorescence. Following this pre-incubation step, the agonist L-glutamate was added to the cells at a concentration corresponding to EC20 (typically around 80 μM) with on-line recording of fluorescence; in order to account for day-to-day variations in the responsiveness of cells, the EC20 of glutamate was determined immediately ahead of each experiment by recording of a full dose-response curve of glutamate.
Responses were measured as peak increase in fluorescence minus basal (i.e. fluorescence without addition of L-glutamate), normalized to the maximal stimulatory effect obtained with saturating concentrations of L-glutamate. Graphs were plotted with the % maximal stimulatory using XLfit, a curve fitting program that iteratively plots the data using Levenburg Marquardt algorithm. The single site competition analysis equation used was y=A+((B−A)/(1+((x/C)D))), where y is the % maximal stimulatory effect, A is the minimum y, B is the maximum y, C is the EC50, x is the log 10 of the concentration of the competing compound and D is the slope of the curve (the Hill Coefficient). From these curves the EC50 (concentration at which half maximal stimulation was achieved), the Hill coefficient as well as the maximal response in % of the maximal stimulatory effect obtained with saturating concentrations of L-glutamate were calculated.
A depression of the signal observed after addition of the EC20 concentration of L-glutamate was indicative of an inhibitory activity of the test compound.

human mGlu5a receptor, sequence (P41594 other isoform, or with tags, fused parts or gaps): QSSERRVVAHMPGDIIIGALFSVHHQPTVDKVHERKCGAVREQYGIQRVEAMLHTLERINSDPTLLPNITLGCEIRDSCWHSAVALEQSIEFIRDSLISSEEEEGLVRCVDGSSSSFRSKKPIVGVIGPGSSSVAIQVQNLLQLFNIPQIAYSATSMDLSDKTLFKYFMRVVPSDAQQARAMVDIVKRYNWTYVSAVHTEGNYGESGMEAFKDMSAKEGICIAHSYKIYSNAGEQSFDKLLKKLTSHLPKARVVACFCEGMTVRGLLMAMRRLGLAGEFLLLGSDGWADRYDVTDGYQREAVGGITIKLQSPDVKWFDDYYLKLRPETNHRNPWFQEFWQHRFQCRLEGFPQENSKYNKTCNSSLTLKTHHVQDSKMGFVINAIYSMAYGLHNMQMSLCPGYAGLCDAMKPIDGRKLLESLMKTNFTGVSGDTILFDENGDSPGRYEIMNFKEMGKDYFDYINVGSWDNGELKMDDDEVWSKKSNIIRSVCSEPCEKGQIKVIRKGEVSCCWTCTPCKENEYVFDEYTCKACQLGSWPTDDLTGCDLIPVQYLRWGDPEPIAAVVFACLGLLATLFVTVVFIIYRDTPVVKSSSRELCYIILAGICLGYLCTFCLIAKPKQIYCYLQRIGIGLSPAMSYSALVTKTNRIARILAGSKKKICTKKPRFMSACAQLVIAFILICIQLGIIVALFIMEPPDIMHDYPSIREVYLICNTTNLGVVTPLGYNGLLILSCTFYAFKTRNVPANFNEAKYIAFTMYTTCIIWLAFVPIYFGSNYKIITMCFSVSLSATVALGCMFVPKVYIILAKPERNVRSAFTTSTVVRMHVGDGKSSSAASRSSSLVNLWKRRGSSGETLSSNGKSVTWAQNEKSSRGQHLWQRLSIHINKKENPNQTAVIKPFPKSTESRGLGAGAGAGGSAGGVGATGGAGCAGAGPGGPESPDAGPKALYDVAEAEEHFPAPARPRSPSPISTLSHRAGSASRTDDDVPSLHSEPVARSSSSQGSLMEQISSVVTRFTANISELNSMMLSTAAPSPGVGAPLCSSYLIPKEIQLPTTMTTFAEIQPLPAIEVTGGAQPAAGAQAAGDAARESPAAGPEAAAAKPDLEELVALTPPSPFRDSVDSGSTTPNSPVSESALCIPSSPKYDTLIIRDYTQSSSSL

SMILES | EC50 [nM] | Emax [%]
CN1C(=O)C(c2ncc(C#Cc3cccc(F)c3)cn2)CCC1(C)C (racemic) [Example 17, (RS)-3-(5-((3-fluorophenyl)ethynyl)pyrimidin-2-yl)-1,6,6-trimethylpiperidin-2-one] | 132 | 80
CN1C(=O)[C@H](c2ccc(C#Cc3ccccc3)cn2)[C@H]2CCCC[C@H]21 [Example 37, (3S,6R,7R)-1-Methyl-3-(5-phenylethynyl-pyridin-2-yl)-octahydro-indol-2-one] | 84 | 49
CN1CCCCC(c2ccc(C#Cc3ccccc3)cn2)C1=O (racemic) [Example 22, (RS)-1-Methyl-3-(5-phenylethynyl-pyridin-2-yl)-azepan-2-one] | 59 | 59
CN1C(=O)C(c2ccc(C#Cc3cccc(F)c3)cn2)CC1(C)C (racemic) [Example 4, (RS)-3-(5-((3-Fluorophenyl)ethynyl)pyridin-2-yl)-1,5,5-trimethylpyrrolidin-2-one] | 61 | 103
CN1C(=O)[C@@H](c2ccc(C#Cc3ccccc3)cn2)[C@@H]2CCCC[C@@H]21 [Example 36, (3R,6S,7S)-1-Methyl-3-(5-phenylethynyl-pyridin-2-yl)-octahydro-indol-2-one] | 84 | 92
CN1C(=O)C(C)(c2ccc(C#Cc3ccccc3)cn2)CC1(C)C (racemic) [Example 20, (RS)-1,3,5,5-Tetramethyl-3-(5-(phenylethynyl)pyridin-2-yl)pyrrolidin-2-one] | 90 | 109
CN1C(=O)C(c2ccc(C#Cc3ccc(F)cc3)nn2)CC1(C)C (stereo not drawn) [Example 10, 3-(6-((4-fluorophenyl)ethynyl)pyridazin-3-yl)-1,5,5-trimethylpyrrolidin-2-one] | 247 | 99
CN1C(=O)C(c2ncc(C#Cc3cccc(F)c3)cn2)CC1(C)C (racemic) [Example 7, (RS)-3-(5-((3-fluorophenyl)ethynyl)pyrimidin-2-yl)-1,5,5-trimethylpyrrolidin-2-one] | 137 | 85
CN1C(=O)[C@@H](c2ccc(C#Cc3ccc(F)cc3)cn2)[C@@H]2CCCC[C@@H]21 [Example 42, (3R,6S,7S)-3-[5-(4-Fluoro-phenylethynyl)-pyridin-2-yl]-1-methyl-octahydro-indol-2-one] | 57 | 63
CN1C(=O)[C@@H](c2ccc(C#Cc3cccc(F)c3)cn2)[C@@H]2CCC[C@@H]21 (racemic) [Example 30, (3RS,3aSR,6aSR)-3-[5-(3-Fluoro-phenylethynyl)-pyridin-2-yl]-1-methyl-hexahydro-cyclopenta[b]pyrrol-2-one] | 33 | 57
CN1C(=O)[C@H](c2ccc(C#Cc3ccc(F)cc3)cn2)[C@H]2CCCC[C@H]21 [Example 43, (3S,6R,7R)-3-[5-(4-fluoro-phenylethynyl)-pyridin-2-yl]-1-methyl-octahydro-indol-2-one] | 146 | 53
CN1C(=O)C(c2ccc(C#Cc3cccc(F)c3)cn2)CCC1(C)C (racemic) [Example 13, (RS)-3-(5-((3-Fluorophenyl)ethynyl)pyridin-2-yl)-1,6,6-trimethylpiperidin-2-one] | 98 | 90
CN1C(=O)[C@@H](c2ccc(C#Cc3cccc(F)c3)cn2)[C@@H]2CCCC[C@@H]21 [Example 40, (3R,6S,7S)-3-[5-(3-Fluoro-phenylethynyl)-pyridin-2-yl]-1-methyl-octahydro-indol-2-one] | 89 | 68
CN1C(=O)[C@@H](c2ccc(C#Cc3cccc(F)c3)cn2)[C@@H]2CCCC[C@@H]21 (racemic) [Example 38, (3RS,6SR,7SR)-3-[5-(3-Fluoro-phenylethynyl)-pyridin-2-yl]-1-methyl-octahydro-indol-2-one] | 69 | 60
CN1C(=O)[C@H](c2ccc(C#Cc3ccnc(Cl)c3)cn2)CC1(C)C (single isomer, unassigned) [Example 46, (R) or (S)-3-[5-(2-Chloro-pyridin-4-ylethynyl)-pyridin-2-yl]-1,5,5-trimethyl-pyrrolidin-2-one] | 103 | 40
CN1C(=O)C(c2ncc(C#Cc3cccc(F)c3)cc2F)CC1(C)C (racemic) [Example 21, (RS)-3-(3-fluoro-5-((3-fluorophenyl)ethynyl)pyridin-2-yl)-1,5,5-trimethylpyrrolidin-2-one] | 188 | 91
CN1C(=O)[C@@H](c2ccc(C#Cc3ccccc3)cn2)[C@@H]2CCCC[C@@H]21 (racemic) [Example 34, (3RS,6SR,7SR)-1-Methyl-3-(5-phenylethynyl-pyridin-2-yl)-octahydro-indol-2-one] | 185 | 82
CN1C(=O)C(c2ccc(C#Cc3ccccc3)cn2)CC1(C)C (racemic) [Example 1, (RS)-1,5,5-Trimethyl-3-(5-(phenylethynyl)pyridin-2-yl)pyrrolidin-2-one] | 60 | 111
CN1CCCC[C@@H](c2ccc(C#Cc3ccccc3)cn2)C1=O (single isomer, unassigned) [Example 25, (S or R)-1-Methyl-3-(5-phenylethynyl-pyridin-2-yl)-azepan-2-one] | 35 | 70
CN1C(=O)C(c2ccc(C#Cc3ccccc3)cn2)CCC1(C)C (racemic) [Example 12, (RS)-1,6,6-Trimethyl-3-(5-(phenylethynyl)pyridin-2-yl)piperidin-2-one] | 113 | 103
CN1CCCCC(c2ccc(C#Cc3cccc(F)c3)cn2)C1=O (racemic) [Example 24, (RS)-3-[5-(3-Fluoro-phenylethynyl)-pyridin-2-yl]-1-methyl-azepan-2-one] | 39 | 69
